# Experimental data taken from publication PMC12169662, “De Novo-Designed APC/C Inhibitors Provide a Rationale for Targeting RING-Type E3 Ubiquitin Ligases” (Journal of Medicinal Chemistry, 2025).
# Bridge positions count the residues as written; N and C are the ends. Square brackets hold non-standard residues; d marks the D form. Peptide text beside a SMILES is read from it. R8 = C=CCCCCCC[C@@](C)(N)C(=O)O; S5 = C=CCCC[C@](C)(N)C(=O)O; Pra = C#CC[C@H](N)C(=O)O
# Experiments:
# APC/C [1] = biological target: T1, APC/C (Homo sapiens, UniProt Q9NYG5); assay: In vitro APC/C ubiquitylation assay with APC/C immunoprecipitated from metaphase HeLa cells; assay type: biochemical; design: immunoprecipitated APC/C from metaphase-synchronized HeLa cells; endogenous in cells; host or cells: metaphase-synchronized HeLa cells (APC/C); the E2 is recombinant; details: 100 μM, end-point assay, UBE2C as E2, dye-labeled securin, in-gel scanning, n = 5
# From the text: To assess prevention of RING activation by our E2 mimetics, and thus validate our design strategy, we employed in vitro APC/C ubiquitylation assays containing immunoprecipitated APC/C from metaphase-synchronized HeLa cells, recombinant UBA1 (E1), UBE2C (E2), ubiquitin, and dye-labeled metaphase APC/C substrate securin (Figure A). […] To immobilize BH3 to beads, we used our models to introduce propargylglycine (Pra) (Pra-BH3) at the N-term and thus enable side chain conjugation with azide agarose beads by click chemistry (Figure E). […] Pra-BH3 also precipitated other RING-type E3 including BRCA1, BMI1, MDM2, c-CBL and c-IAP1 (Figure F). However, except for c-CBL and MDM2, those interactions were weaker, as judged by the degree of enrichment over the input of the assay (Figure G).
# (§1) APC/C-dependent ubiquitination reactions were performed at 30 °C in 30 mM HEPES pH 7.4, 175 mM NaCl, 8 mM MgCl2, 0.05% Tween-20, 1 mM DTT and 5% glycerol and contained 20 nM recombinant APC/C, 340 nM CDC20, 46 nM GST-UBA1, 340 nM UBE2C (alternatively 400 nM UBE2D, 280 nM UBE2S), 21 μM His6-ubiquitin or if it is indicated 21 μM methylated-ubiquitin (BostonBiochem), 2.6 mM ATP, 10 mM phosphocreatine, and 11 μM creatine kinase. […] Detection of fluorescently labeled substrates was done by a quantitative near-infrared scanning system, Odyssey.
# APC/C [2] = biological target: T1, APC/C; assay: In vitro APC/C ubiquitination assay, fully reconstituted with recombinant APC/C, substrate securin; assay type: biochemical; design: made in house; host or cells: SF9 insect cells, co-infected with two baculoviruses (bacmids a gift from David Barford); details: 25 μM, lowest concentration of titration 25-100 μM, n = 3
# Procedure: Next, we tested the APC/C inhibitory proficiency of H1-6 in fully reconstituted activity assays with recombinant APC/C in comparison to BH3 and the commercially available APC/C inhibitor TAME. To account for mechanistic differences in APC/C inhibition between TAME (inhibits CDC20 binding) and ^i APC11 (inhibits E2 binding), all inhibitors, E2s and CDC20 were added simultaneously to APC/C. […] We observed no difference for UBE2C and only a small (∼10%) decrease in UBE2S autoubiquitylation compared to control reactions (Figure S16B–D).
# To quantify the inhibitory effectiveness of H6, its IC50 was determined. To this end, we performed in vitro APC/C ubiquitination assays in the presence of H6 titrated from 0.01 to 100 μM (Figure S17B). […]
# as §1, with “Odyssey. […]” for “Odyssey.”
# UBE2S = biological target: T2, UBE2S (Homo sapiens, UniProt Q16763); assay: In vitro E2 activity assay (autoubiquitination); assay type: biochemical; details: 100 μM, 45 min, 30 °C, Blue Silver staining, n = 3
# T2 construct: gift of Sonja Lorenz (MPI, Göttingen, Germany)
# T2 sequence (Q16763 1-222): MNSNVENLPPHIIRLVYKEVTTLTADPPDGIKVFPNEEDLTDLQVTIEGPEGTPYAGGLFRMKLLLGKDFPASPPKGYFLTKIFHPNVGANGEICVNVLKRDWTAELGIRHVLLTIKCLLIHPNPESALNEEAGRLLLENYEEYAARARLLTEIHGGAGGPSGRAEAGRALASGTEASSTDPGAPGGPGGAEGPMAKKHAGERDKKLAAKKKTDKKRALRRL
# Procedure: UBE2C and UBE2S activity assays were performed at 30 °C in 50 mM HEPES pH 7.4, 100 mM KCl, 9 mM MgCl2, and contained 0.6 μM UBA1 (E1), 8 μM UBE2C or UBE2S, 60 μM His6-ubiquitin, and 5.6 mM ATP. It should be noted that wild-type UBE2C and UBE2S were used. The reaction was done in a volume of 15 μL, and it was quenched after 45 min with the LDS sample buffer supplemented with 100 mM DTT and subjected to SDS-PAGE followed by Blue Silver staining. Imaging of Blue Silver-stained gels was done by a quantitative near-infrared scanning system, Odyssey. It should be noted that reactions without ATP were first preincubated for 5 min at room temperature.
# RBX1 = biological target: T3, RBX1 (Homo sapiens, UniProt P62877); assay: Pull-down binding assay from HeLa cell extract, Western blot; details: n = 3; for binding to RBX1, Pra-H1 versus Pra-BH3: pull-down with metaphase extracts
# T3 construct: endogenous in cells; host or cells: HeLa
# Procedure: (§2) For protein transfer, a 0.45 μm Immobilon-FL PVDF membrane (Merck Millipore) was used. The membrane was activated in ethanol and then transferred to Blotting buffer (50 mM SDS-MOPS, 50 mM Tris base, 0.1% SDS, 1 mM EDTA, and 20% EtOH). The proteins were transferred using a wet transfer for 1.5 h at 400 mA. Subsequently, the membrane was incubated with the blocking solution, 10% milk in PBS-T (0.02% Tween-20 in PBS), for 1 h at room temperature. To detect proteins of interest, the membrane was incubated with primary antibodies overnight at 4° C, followed by 3 washes for 10 min with PBS-T and incubation with IRDye-labeled secondary antibodies for 1 h. Prior to detection, the membrane was washed twice with PBS-T for 10 min and once with PBS for 10 min. The detection was done using the quantitative near-infrared scanning system Odyssey (LI-COR Biosciences).
# (§3) HeLa cell pellet was resuspended in the extraction buffer (30 mM HEPES pH 7.5, 175 mM NaCl, 2.5 mM MgCl2, 0.25% NP40, 10% glycerol, 1 mM DTT supplied with complete protease inhibitor cocktail (Roche), PhosSTOP phosphatase inhibitors (Roche), 1 mM PMSF, 10 μM MG132) and incubated for 20 min on ice, followed by centrifugation to clear the lysate for 15 min at 4 °C 16,100 g. In the meantime, inhibitor molecules containing the propargyl-Gly-OH (Pra) chemical group were covalently attached to the azide agarose resin (Jena Bioscience) by Cu(I)-catalyzed azide–alkyne cycloaddition reaction. Specifically, the inhibitor molecules were mixed with azide agarose resin in a ratio of 0.125 μmol inhibitor/20 μL agarose resin. The reaction was catalyzed by 0.1 mM CuSO4, 0.5 mM THPTA (Sigma-Aldrich), and 5 mM Sodium ascorbate and was performed on the rotating wheel for 30 min at room temperature in a volume of 1 mL. Subsequently, the resin was washed five times with extraction buffer. The inhibitor-agarose resin was added to 2 mg of HeLa cell extract and incubated at 4 °C for 2 h. Afterward, the resin was washed four times with extraction buffer. Pull-down proteins were eluted by incubation with prewarmed 1x LDS sample buffer for 10 min at room temperature, followed by taking supernatant supplemented with 100 mM DTT and boiling for 10 min. Afterward, SDS PAGE and Western blot analyses were performed to detect the indicated proteins.
# APC11 = biological target: T4, APC11 (Homo sapiens, UniProt Q9NYG5); assay: as above; details: peptide clicked to azide agarose beads, 2 mg HeLa extract, 4 °C, 2 h, n = 3
# T4 construct: endogenous in cells; host or cells: HeLa
# Procedure: as §2, §3
# c-CBL = biological target: T5, c-CBL (Homo sapiens, UniProt P22681); assay: as above; details: peptide clicked to azide agarose beads, n = 3
# T5 construct: endogenous in cells; host or cells: HeLa
# Procedure: as §2, §3
# BMI1 = biological target: T6, BMI1 (Homo sapiens, UniProt P35226); assay: as above; details: peptide clicked to azide agarose beads, n = 3
# T6 construct: endogenous in cells; host or cells: HeLa
# T6 sequence (P35226 1-326): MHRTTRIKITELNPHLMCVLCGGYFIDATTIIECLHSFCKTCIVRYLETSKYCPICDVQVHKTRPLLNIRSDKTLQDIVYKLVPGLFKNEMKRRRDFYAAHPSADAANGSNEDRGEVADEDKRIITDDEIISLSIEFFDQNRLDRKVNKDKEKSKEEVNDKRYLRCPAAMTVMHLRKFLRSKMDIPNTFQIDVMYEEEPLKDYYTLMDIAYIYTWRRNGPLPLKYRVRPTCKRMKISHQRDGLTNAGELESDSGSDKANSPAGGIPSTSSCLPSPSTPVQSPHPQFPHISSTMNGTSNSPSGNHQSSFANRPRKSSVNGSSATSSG
# Procedure: as §2, §3
# c-IAP1 = biological target: T7, c-IAP1 (Homo sapiens, UniProt Q13490); assay: as above; details: peptide clicked to azide agarose beads, n = 3
# T7 construct: endogenous in cells; host or cells: HeLa
# Procedure: as §2, §3
# BRCA1 = biological target: T8, BRCA1 (Homo sapiens, UniProt P38398); assay: as above; details: peptide clicked to azide agarose beads, n = 3
# T8 construct: endogenous in cells; host or cells: HeLa
# Procedure: as §2, §3
# MDM2 = biological target: T9, MDM2 (Homo sapiens, UniProt Q00987); assay: as above; details: peptide clicked to azide agarose beads, n = 3
# T9 construct: endogenous in cells; host or cells: HeLa
# Procedure: as §2, §3
# T3 sequence (P62877 whole entry): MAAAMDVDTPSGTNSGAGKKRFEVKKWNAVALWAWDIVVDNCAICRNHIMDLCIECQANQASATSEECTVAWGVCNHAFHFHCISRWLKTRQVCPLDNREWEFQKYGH
# T9 sequence (Q00987 whole entry): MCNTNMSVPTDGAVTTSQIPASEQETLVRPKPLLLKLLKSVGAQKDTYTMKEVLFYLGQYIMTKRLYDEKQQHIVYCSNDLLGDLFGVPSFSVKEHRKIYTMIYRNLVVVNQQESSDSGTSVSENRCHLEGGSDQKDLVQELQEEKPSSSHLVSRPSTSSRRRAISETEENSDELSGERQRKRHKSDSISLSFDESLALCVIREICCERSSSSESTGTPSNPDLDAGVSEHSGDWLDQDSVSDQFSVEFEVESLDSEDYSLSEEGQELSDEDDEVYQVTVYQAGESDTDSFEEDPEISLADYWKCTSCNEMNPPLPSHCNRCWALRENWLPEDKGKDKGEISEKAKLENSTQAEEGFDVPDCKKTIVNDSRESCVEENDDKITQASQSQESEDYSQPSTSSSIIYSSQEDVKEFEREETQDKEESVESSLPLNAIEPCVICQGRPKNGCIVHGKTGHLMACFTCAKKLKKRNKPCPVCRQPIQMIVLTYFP
# T8 sequence (P38398 whole entry): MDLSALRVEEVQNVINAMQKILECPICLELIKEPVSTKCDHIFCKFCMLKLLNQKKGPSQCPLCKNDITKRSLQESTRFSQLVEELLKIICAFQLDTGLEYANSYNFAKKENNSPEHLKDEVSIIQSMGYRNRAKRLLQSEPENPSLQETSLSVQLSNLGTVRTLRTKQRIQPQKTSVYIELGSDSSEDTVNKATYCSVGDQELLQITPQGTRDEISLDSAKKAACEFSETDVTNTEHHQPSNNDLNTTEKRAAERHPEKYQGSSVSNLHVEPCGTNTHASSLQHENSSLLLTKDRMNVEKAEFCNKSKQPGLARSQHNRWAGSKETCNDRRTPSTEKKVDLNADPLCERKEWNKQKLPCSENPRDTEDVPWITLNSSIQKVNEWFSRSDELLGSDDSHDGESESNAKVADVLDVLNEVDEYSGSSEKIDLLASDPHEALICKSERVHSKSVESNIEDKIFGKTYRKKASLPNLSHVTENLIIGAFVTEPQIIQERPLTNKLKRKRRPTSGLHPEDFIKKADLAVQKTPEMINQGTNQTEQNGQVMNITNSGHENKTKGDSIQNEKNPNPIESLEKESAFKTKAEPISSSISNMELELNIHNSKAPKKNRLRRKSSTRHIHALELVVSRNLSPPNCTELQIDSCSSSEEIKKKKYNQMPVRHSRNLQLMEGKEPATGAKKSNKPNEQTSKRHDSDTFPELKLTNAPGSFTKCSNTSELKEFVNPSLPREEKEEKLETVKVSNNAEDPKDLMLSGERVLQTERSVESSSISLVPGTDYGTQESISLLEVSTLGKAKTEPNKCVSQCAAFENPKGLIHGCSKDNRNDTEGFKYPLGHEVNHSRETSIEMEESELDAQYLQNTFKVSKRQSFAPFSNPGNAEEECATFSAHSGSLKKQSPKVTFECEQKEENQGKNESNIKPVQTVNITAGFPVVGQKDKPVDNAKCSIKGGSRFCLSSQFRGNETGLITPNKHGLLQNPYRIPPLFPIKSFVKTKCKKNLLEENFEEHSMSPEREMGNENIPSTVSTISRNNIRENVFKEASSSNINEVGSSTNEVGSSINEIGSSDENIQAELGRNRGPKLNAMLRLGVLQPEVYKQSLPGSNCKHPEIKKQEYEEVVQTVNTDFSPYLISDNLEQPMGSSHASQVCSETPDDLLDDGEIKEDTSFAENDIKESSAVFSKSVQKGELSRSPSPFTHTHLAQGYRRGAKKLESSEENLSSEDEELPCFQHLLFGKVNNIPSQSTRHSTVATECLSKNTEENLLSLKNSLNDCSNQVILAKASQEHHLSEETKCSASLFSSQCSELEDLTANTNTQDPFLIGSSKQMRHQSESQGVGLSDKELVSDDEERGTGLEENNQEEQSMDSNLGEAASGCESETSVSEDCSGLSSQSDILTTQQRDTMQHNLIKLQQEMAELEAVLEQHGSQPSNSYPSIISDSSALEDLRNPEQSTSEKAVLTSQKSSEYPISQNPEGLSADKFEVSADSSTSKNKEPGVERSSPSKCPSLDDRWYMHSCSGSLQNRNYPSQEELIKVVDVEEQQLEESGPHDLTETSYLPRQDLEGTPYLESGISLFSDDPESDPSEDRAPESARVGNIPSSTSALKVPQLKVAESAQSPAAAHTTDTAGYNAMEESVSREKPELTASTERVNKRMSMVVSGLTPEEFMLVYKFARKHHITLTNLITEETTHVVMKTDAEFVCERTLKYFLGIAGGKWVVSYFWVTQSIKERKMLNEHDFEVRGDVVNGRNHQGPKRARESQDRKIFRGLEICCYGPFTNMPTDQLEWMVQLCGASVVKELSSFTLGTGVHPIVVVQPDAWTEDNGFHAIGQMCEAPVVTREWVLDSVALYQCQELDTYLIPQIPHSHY
# T7 sequence (Q13490 whole entry): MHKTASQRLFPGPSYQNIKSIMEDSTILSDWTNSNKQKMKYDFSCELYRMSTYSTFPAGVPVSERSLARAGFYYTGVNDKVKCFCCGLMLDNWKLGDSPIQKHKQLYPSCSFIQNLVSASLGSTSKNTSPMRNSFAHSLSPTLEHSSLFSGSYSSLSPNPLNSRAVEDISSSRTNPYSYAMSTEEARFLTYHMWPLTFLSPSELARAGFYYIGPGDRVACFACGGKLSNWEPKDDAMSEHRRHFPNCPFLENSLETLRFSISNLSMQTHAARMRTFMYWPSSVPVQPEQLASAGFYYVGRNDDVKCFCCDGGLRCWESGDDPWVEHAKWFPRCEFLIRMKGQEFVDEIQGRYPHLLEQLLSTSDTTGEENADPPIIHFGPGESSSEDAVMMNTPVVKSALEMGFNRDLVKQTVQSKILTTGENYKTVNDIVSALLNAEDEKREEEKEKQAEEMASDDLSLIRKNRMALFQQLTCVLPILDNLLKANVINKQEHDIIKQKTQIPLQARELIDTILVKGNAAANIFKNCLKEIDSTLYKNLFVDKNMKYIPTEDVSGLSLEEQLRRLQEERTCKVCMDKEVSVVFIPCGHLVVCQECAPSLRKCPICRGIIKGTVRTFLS
# T4 sequence (Q9NYG5 whole entry): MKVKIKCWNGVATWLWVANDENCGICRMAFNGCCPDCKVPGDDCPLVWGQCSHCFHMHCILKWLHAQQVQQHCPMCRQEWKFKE
molecule,measurement,setting,value
C[C@@H](O)[C@H](NC(=O)[C@H](CCCNC(=N)N)NC(=O)[C@@H]1CSSC[C@H](NC(=O)[C@H](CCCNC(=N)N)NC(=O)CN)C(=O)N[C@@H](Cc2c[nH]cn2)C(=O)N[C@@H](Cc2c[nH]c3ccccc23)C(=O)NCC(=O)N2CCC[C@H]2C(=O)N[C@@H](CCC(=O)O)C(=O)N[C@@H]([C@@H](C)O)C(=O)N[C@@H](Cc2ccccc2)C(=O)N[C@@H](Cc2c[nH]c3ccccc23)C(=O)N1)C(=O)O [BH4] (H-GRCHWGPETFWCRT-OH; disulfide 3-12),securin ubiquitylation compared to control reactions,APC/C [1],no such effect
CC[C@H](C)[C@@H]1NC(=O)[C@H](CCC(=O)O)NC(=O)[C@H](CCCCN)NC(=O)[C@H]([C@@H](C)CC)NC(=O)[C@](C)(NC(=O)[C@H](Cc2c[nH]c3ccccc23)NC(=O)[C@H](Cc2c[nH]c3ccccc23)NC(=O)[C@H](CCC(=O)O)NC(C)=O)CCCCCCC=CCCC[C@@](C)(C(=O)N[C@@H](CCCNC(=N)N)C(=O)N[C@@H](CCCNC(=N)N)C(=O)N[C@@H](C)C(N)=O)NC(=O)[C@H](CCCNC(=N)N)NC(=O)[C@H](CCC(N)=O)NC1=O [H6] (Ac-EWW[R8]IKEIQR[S5]RRA-NH2; staple 4-11),reduction of APC/C activity toward securin,APC/C [2],more than 80%
same,decrease in UBE2S autoubiquitylation compared to control reactions,UBE2S,~10%
C#CC[C@H](NC(=O)[C@@H]1CCCN1C(=O)[C@H](Cc1c[nH]c2ccccc12)NC(=O)[C@H](CCCNC(=N)N)NC(C)=O)C(=O)N[C@@]1(C)CCCC=CCCC[C@@](C)(C(=O)N[C@@H](CCC(N)=O)C(=O)N[C@H](C(=O)N[C@@H](CCCNC(=N)N)C(=O)N[C@@H](CCCNC(=N)N)C(=O)N[C@@H](Cc2c[nH]c3ccccc23)C(N)=O)C(C)C)NC(=O)[C@H](CC(=O)O)NC(=O)[C@H](Cc2c[nH]c3ccccc23)NC(=O)[C@H](CCCCN)NC1=O [Pra-H1] (Ac-RWP[Pra][S5]KWD[S5]QVRRW-NH2; staple 5-9),"binding to RBX1, Pra-H1 versus Pra-BH3",RBX1,very weak and unchanged
"Ac-[Pra]RCHWGPRTFWCR-NH2 (disulfide 3-12 (inferred); SMILES C#CC[C@H](NC(C)=O)C(=O)N[C@@H](CCCNC(=N)N)C(=O)N[C@H]1CSSC[C@@H](C(=O)N[C@@H](CCCNC(=N)N)C(N)=O)NC(=O)[C@H](Cc2c[nH]c3ccccc23)NC(=O)[C@H](Cc2ccccc2)NC(=O)[C@H]([C@@H](C)O)NC(=O)[C@H](CCCNC(=N)N)NC(=O)[C@@H]2CCCN2C(=O)CNC(=O)[C@H](Cc2c[nH]c3ccccc23)NC(=O)[C@H](Cc2c[nH]cn2)NC1=O) [Pra-BH3, BH3 with propargylglycine at the N-term for click chemistry]",enrichment of APC11 on beads,APC11,strong enrichment
same,precipitation of c-CBL on beads,c-CBL,precipitated
same,"precipitation of BMI1 on beads, enrichment over input",BMI1,weaker
same,enrichment of RBX1 on beads,"RBX1; peptide clicked to azide agarose beads, 2 mg HeLa extract, 4 °C, 2 h",not
same,"binding to RBX1, Pra-H1 versus Pra-BH3",RBX1,very weak and unchanged
same,"precipitation of c-IAP1 on beads, enrichment over input",c-IAP1,weaker
same,"precipitation of BRCA1 on beads, enrichment over input",BRCA1,weaker
same,precipitation of MDM2 on beads,MDM2,precipitated
